Among the data in patent US6831190B1, “Guanidinomethyl cyclohexane carboxylic acid ester derivatives” (Teikoku Chemical Industries Co., Ltd., priority 1994, dated 2004) are MIC, MIC against bacillus subcillus ATCC 6633 and MBC values, retold here.

What all share (assay type): cell-based
Assay [1] has as its system Helicobacter pylori No. 3. The assay can be described thus: MIC, agar plating dilution, clinical segregation strain. The following applies: Strain 6: Helicobacter pylori No. 3. In short, it runs like this: (§1)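 Agar plate dilution per Japanese Chemotherapy Society standard method, with compounds from DMSO solutions mixed into Brain Heart Infusion agar containing 0.1% cyclodextrin. Plates were read after 3 days at 37 °C under microaerobic conditions.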

Assay [2] deals with Helicobacter pylori No. 2. Described as above. The following applies: Strain 5: Helicobacter pylori No. 2. An outline of the steps: as §1
Assay [3] deals with Helicobacter pylori No. 1. The assay is described as above. The following applies: Strain 4: Helicobacter pylori No. 1. An outline of the steps: as §1
Assay [4] concerns Helicobacter pylori No. 4. Described as above. As to conditions: Strain 7: Helicobacter pylori No. 4. An outline of the steps:
as §1

The subject of assay [5] is Escherichia coli NIH JC-2. The assay can be described thus: MIC, standard method of Japanese Chemotherapy Academy. The following applies: Objected Strain 3: Escherichia coli NIH JC-2. The protocol:
(§2) 1. Minimum Inhibitory Concentration (MIC) was measured in accordance with the standard method of Japanese Chemotherapy Academy (Chemotherapy, 29: 76-79, 1981).

Assay [6] concerns Bacillus subtilis ATCC 6633. The assay is described as above. As to conditions: standard method of Japanese Chemotherapy Academy. The method, then: as §2
And MIC of the compounds of Example 3, 36, 8, 14, 17, 21, 41 and 45 were measured.

The test system of assay [7] is Helicobacter pylori No. 3. The assay can be described thus: MIC and MBC, liquid medium dilution. The following applies: Objected Strain 6: Helicobacter pylori No. 3. The protocol:
(§3) 2. Minimum Inhibitory Concentration (MIC) and Minimum Bacteria sterilizeory Concentration (MBC) against helicobacter pylon were measured in accordance with the liquid medium dilution. […] And […] of helicobacter pylon bacterial solution, which was cultured at 37° C. for three days and then diluted and prepared with the above mentioned liquid medium, was added to the mixtures to adjust the volume to 105 CFU/ml. […] After they were cultured by the same method as above mentioned, minimum concentration of the compounds which were not recognized the growth with the naked eyes were measured as the values of MBC.

Assay [8] relates to Helicobacter pylori ATCC 43629. The assay can be described thus: MIC and MBC, liquid medium dilution. The following applies: Objected Strain 2: Helicobacter pylori ATCC 43629. The method, then: as §3
Assay [9] deals with Helicobacter pylori No. 2. The assay can be described thus: MIC and MBC, liquid medium dilution. As to conditions: Objected Strain 5: Helicobacter pylori No. 2. The method, then:
as §3

Assay [10] deals with Helicobacter pylori No. 1. The assay can be described thus: MIC and MBC, liquid medium dilution. The following applies: Objected Strain 4: Helicobacter pylori No. 1. The protocol:
as §3

In assay [11] the test system is Helicobacter pylori ATCC 43504. The assay can be described thus: MIC and MBC, liquid medium dilution. The following applies: Objected Strain 1: Helicobacter pylori ATCC 43504. The protocol: as §3
For assay [12], the system named is Helicobacter pylori No. 4. The assay can be described thus: MIC and MBC, liquid medium dilution. As to conditions: Objected Strain 7: Helicobacter pylori No. 4. The protocol:
as §3

Assay [13] concerns Helicobacter pylori ATCC 43629. The assay can be described thus: MIC, agar plating dilution (standard method of Japanese Chemotherapy Academy). The following applies: Objected Strain 2: Helicobacter pylori ATCC 43629. In short, it runs like this:
(§4)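 Agar dilution MIC followed the Japanese Chemotherapy Academy standard method, on Brain Heart Infusion agar with 0.1% cyclodextrin and compounds dissolved in DMSO. Plates were incubated microaerobically at 37 °C for three days.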

Assay [14] has as its system Helicobacter pylori ATCC 43504. Described as above. As to conditions: Objected Strain 1: Helicobacter pylori ATCC 43504. In short, it runs like this: as §4

Consider `Cl.N=C(N)NC[C@H]1CC[C@H](C(=O)Oc2ccc(-c3ccc(C(=O)OCc4ccc(F)cc4)cc3)cc2)CC1` [Example 16, trans-4-guanidinomethyl cyclohexane carboxylic acid [4-[4-(4-fluorobenzyloxycarbonyl)phenyl]phenylester].hydrochloride], for which the MIC in assay [1] is 0.20 µg/mL; in [2] it was 0.78 µg/mL; in assay [3], 0.20 µg/mL; in [4], 0.39 µg/mL; in assay [5], more than 25 µg/mL; in [7], 0.05 µg/mL. In addition, the MIC is 0.39 µg/mL in assay [8]; 0.78 µg/mL in assay [9]; 0.20 µg/mL in assay [10]; 0.20 µg/mL in assay [11]; 0.10 µg/mL in assay [12]; 0.78 µg/mL in assay [13]. The MIC in [14] stood at 0.78 µg/mL. Moreover, the MIC against bacillus subcillus ATCC 6633 in [6] is more than 25 µg/mL. For the same compound, the MBC in assay [7] was determined as 0.10 µg/mL; in [8] it was 1.56 µg/mL; in [9] it was 3.13 µg/mL; in assay [10], 0.78 µg/mL; in assay [11], 0.39 µg/mL; in assay [12], 0.39 µg/mL.

Regarding `Cl.N=C(N)NC[C@H]1CC[C@H](C(=O)Oc2ccc(-c3ccc(C(=O)OCc4ccc(Cl)cc4)cc3)cc2)CC1` [Example 15, trans4-guanidinomethyl cyclohexane carboxylic acid [4-[4-(4-chlorobenzyloxy carbonyl)phenyl]phenylester].hydrochloride], the MIC in assay [1] is 0.10 µg/mL; in assay [2], 0.39 µg/mL; in [3], 0.10 µg/mL; in assay [4] it was 0.20 µg/mL; in assay [5], more than 25 µg/mL; in assay [7] it was 0.05 µg/mL. For the same compound, the MIC in assay [8] turned out to be 0.39 µg/mL; in assay [9], 0.39 µg/mL; in assay [10] it was 0.20 µg/mL; in [11], 0.20 µg/mL; in [12] it was 0.39 µg/mL; in [13], 0.39 µg/mL. In addition, the MIC in assay [14] was 0.78 µg/mL. This compound also showed an MIC against bacillus subcillus ATCC 6633 in [6] of more than 25 µg/mL. Besides, the minimum bactericidal concentration (MBC) in assay [7] is 0.10 µg/mL; in assay [8], 1.56 µg/mL; in assay [9], 1.56 µg/mL; in assay [10] it was 0.78 µg/mL; in assay [11], 0.39 µg/mL; in assay [12] it was 0.39 µg/mL.
